Measured values from article PMC8657912, “Substrate-Dependent Trans-Stimulation of Organic Cation Transporter 2 Activity” (International Journal of Molecular Sciences, 2021).
Read-outs that look alike come from different tables or passages of the source.

Legend:
human OCT2 [1] = target: T1, human OCT2 (Homo sapiens, UniProt O15244); assay: Uptake trans-stimulation assay of OCT2-mediated DiASP uptake in HEK-OCT2 cells; type: cell-based; set-up: host or cells: HEK293 (HEK-OCT2); conditions: for Trans-modulation of OCT2-mediated DiASP uptake (in words): HEK-OCT2 cells preloaded 30 min with substrate, 0.01–10 mM or 0.1–100 µM range
T1 sequence (O15244 1-555): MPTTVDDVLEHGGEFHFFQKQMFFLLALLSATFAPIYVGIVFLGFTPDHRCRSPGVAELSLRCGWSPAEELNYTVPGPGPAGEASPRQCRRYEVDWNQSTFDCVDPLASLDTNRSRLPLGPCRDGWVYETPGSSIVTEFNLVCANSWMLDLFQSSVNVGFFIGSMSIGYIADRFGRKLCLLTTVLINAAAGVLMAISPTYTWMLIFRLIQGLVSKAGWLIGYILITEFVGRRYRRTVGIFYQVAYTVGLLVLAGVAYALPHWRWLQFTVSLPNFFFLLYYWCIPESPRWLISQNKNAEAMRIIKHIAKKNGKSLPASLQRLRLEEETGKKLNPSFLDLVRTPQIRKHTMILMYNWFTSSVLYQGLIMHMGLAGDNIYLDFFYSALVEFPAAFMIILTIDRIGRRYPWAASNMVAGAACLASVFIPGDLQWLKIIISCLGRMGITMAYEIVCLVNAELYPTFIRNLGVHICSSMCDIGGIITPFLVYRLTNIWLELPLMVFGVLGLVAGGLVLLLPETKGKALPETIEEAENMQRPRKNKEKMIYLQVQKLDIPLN
Method: Uptake trans-stimulation assays were performed as schematically depicted in Figure 4.
Figure 4 Schematic representation of the various steps of the trans-stimulation assay performed for investigating OCT2 substrates (created with biorender.com). Step 1 corresponds to the initial incubation of cells without (Control) or with candidate substrate for 30 min at 37 °C. Step 2 consists of the incubation of cells with the reference tracer substrate (DiASP) for 5 min at 37 °C. Step 3 is the measurement of cellular accumulation of DiASP through spectrofluorimetry.
(§1) They were cultured in Dulbecco’s modified Eagle medium (DMEM) (Life Technologies, Carlsbad, CA, USA), supplemented with 10% (vol/vol) fetal calf serum, 10 IU/mL penicillin, 10 μg/mL streptomycin, 1% non-essential amino acids, and 1 μg/mL insulin, as already reported.
OCT2 trans-stimulation assays were performed through monitoring cellular uptake of the tracer substrate DiASP. As schematically depicted in Figure 4, HEK-OCT2 cells were first incubated in the absence (control) or presence of different concentrations of OCT2 substrates for 30 min at 37 °C in the transport assay medium described above. After washing with PBS, cells were re-incubated with 10 µM DiASP for 5 min. Cellular accumulation of the fluorescence dye was next determined by spectrofluorimetry, as reported above. Data were commonly expressed as % of DiASP uptake in control cells, set at 100%, or as fluorescence arbitrary units (FAU)/mg protein.

human OCT2 [2] = target: T1, human OCT2; assay: Cis-inhibition of OCT2-mediated DiASP uptake in HEK-OCT2 cells
Method: as §1
Cis-inhibition of OCT2 activity was analysed as previously described. Briefly, HEK-OCT2 cells were incubated with 10 µM DiASP, in the absence (control) of the presence of 100 µM amitriptyline (used here as a reference inhibitor of OCT2 activity) or of various concentrations of the OCT2 substrates, for 5 min. The transport assay medium consisted of 5.3 mM KCl, 1.1 mM KH2PO4, 0.8 mM MgSO4, 1.8 mM CaCl2, 11 mM dextrose, 10 mM HEPES, and 136 mM NaCl, adjusted to pH = 7.4. Next, cells were washed with phosphate-buffered saline (PBS) and lysed in distilled water. Intracellular accumulation of DiASP was then determined by spectrofluorimetry using a PerkinElmer Enspire spectrofluorometer (Waltham, MA, USA); excitation and emission wavelengths were 485 nm and 607 nm, respectively. DiASP accumulation values were thereafter normalized to total protein content, determined by the Bradford method.
IC50 values of OCT2 substrates towards OCT2-mediated uptake of DiASP and the corresponding 95% confidence intervals were determined from nonlinear regression of concentration-response data, based on the four-parameter logistic function. They were calculated using Prism 9.3 software (GraphPad Software, San Diego, CA, USA), through the following Equation (2):(2) A = 100/1 + 10^OCT2 substrate − LogIC50 × Hill slope where A = the percentage of transporter activity for a given concentration of OCT2 substrate determined as described in Equation (1), [OCT2 substrate] = OCT2 substrate concentration in the transport assay medium, and Hill slope = a coefficient describing the steepness of the curve.

OCT3 (SLC22A3) = test system: OCT3 (SLC22A3); set-up: method as in PMID 12538837; conditions: cited from earlier work
OCT2 = conditions: cited from earlier work; for Trans-stimulation of OCT2 activity: radiolabelled MPP+ as tracer substrate; for Trans-stimulation of OCT2-mediated MPP+ uptake: MPP+ as tracer
HEK-MOCK cells = assay: Trans-stimulation assay of DiASP uptake in control HEK-MOCK cells; type: cell-based, human; conditions: data not shown
[3] = HEK-OCT2 cells preloaded 30 min 37 °C, washed, then 10 µM DiASP 5 min
[4] = read-out: IC50 towards OCT2-mediated uptake of DiASP (cis-inhibition), HEK-OCT2 cells, 10 µM DiASP, 5 min, 37 °C, 95% CI in brackets

Structure (SMILES) | Trans-modulation of OCT2-mediated DiASP uptake (in words) (human OCT2 [1]) | IC50 (human OCT2 [2]) | Lowest trans-inhibiting concentration towards DiASP uptake (human OCT2 [1]; [3]) | other results
CC(=O)OCC[N+](C)(C)C [Acetylcholine, acetylcholine] | trans-stimulate | 530 µM |  | 
NCCCCN=C(N)N [Agmatine, agmatine] | trans-stimulate | 410 µM | 10 mM | Loading concentration that significantly trans-stimulates DiASP uptake (human OCT2 [1]; [3]): 0.1 mM; Trans-stimulation of OCT3 activity (OCT3 (SLC22A3)): trans-stimulate
CCN1CCCC1CNC(=O)c1cc(S(=O)(=O)CC)c(N)cc1OC (centres unmarked) [Amisulpride, amisulpride] |  | 40 µM |  | 
C[N+](C)(C)CCO [Choline, choline] | trans-stimulate | 1330 µM |  | Loading concentration that significantly trans-stimulates DiASP uptake (human OCT2 [1]; [3]): 1 mM; Trans-stimulation of OCT2 activity (OCT2): trans-stimulate
CN/C(=N/CCSCc1nc[nH]c1C)NC#N [Cimetidine, cimetidine] | failed to trans-stimulate | 79.6 µM | 10 mM | Trans-stimulation of OCT2-mediated MPP+ uptake (OCT2): failed to trans-stimulate
NCCc1ccc(O)c(O)c1 [Dopamine, dopamine] |  | 2390 µM | 10 mM | 
CNC[C@H](O)c1ccc(O)c(O)c1 [Epinephrine, epinephrine] |  | 1490 µM | 1 mM | 
Nc1ccn([C@@H]2CS[C@H](CO)O2)c(=O)n1 [Lamivudine, lamivudine] |  | 1900 µM |  | Lowest trans-inhibiting concentration towards DiASP uptake (human OCT2 [1]): 10 mM
C[n+]1ccc(-c2ccccc2)cc1 [MPP^+, 1-methyl-4-phenyl pyridinium] | failed to trans-stimulate |  |  | IC50 (human OCT2 [2]; [4]): 0.91 µM; Trans-stimulation of OCT2-mediated MPP+ uptake (OCT2): failed to trans-stimulate
CN(C)C(=N)N=C(N)N [Metformin, metformin] | trans-stimulate | 1140 µM |  | Trans-stimulation of DiASP uptake in control HEK-MOCK cells (HEK-MOCK cells): failed to significantly trans-stimulate; Trans-stimulation of OCT2 activity (OCT2): trans-stimulate
COCCn1c2c([n+](Cc3cnccn3)c1C)C(=O)c1ccccc1C2=O [Sepantronium, sepantronium] |  | 7.04 µM | 0.001 mM | 
NCCc1c[nH]c2ccc(O)cc12 [Serotonin, serotonin] |  | 180 µM | 1 mM | 
CC[N+](CC)(CC)CC [TEA, tetra-ethylammonium] |  |  |  | IC50 (human OCT2 [2]; [4]): 180 µM
Cc1ncc(C[n+]2csc(CCO)c2C)c(N)n1 [Thiamine, thiamine] |  | 270 µM | 10 mM | 
CN(C)CCC=C1c2ccccc2CCc2ccccc21 [amitriptyline] |  |  |  | Effect on metformin-stimulated uptake of DiASP (human OCT2 [1]; 100 µM amitriptyline during DiASP step, cells preloaded with 10 mM metformin 30 min): fully suppressed; Effect on uptake of DiASP in HEK-OCT2 cells not preloaded with metformin (human OCT2 [2]; 100 µM amitriptyline, 10 µM DiASP 5 min 37 °C): abolished
